Legend:
[1] = target: T1, human melatonin 1 receptors (human MT1 receptors) (Homo sapiens, UniProt P48039); test: Melatonin receptor binding inhibitory test, 2-[125I] Iodomelatonin, MT1; conditions: membrane fraction of CHO-hMelR7 cells, 25° C. for 2.5 hr, read-out: binding inhibitory activity as IC50 value for MT1
T1 construct: expressed in transfected cells; membrane fraction
Experimental: (§1) Melatonin Receptor Binding Inhibitory Test
(1) Preparation of CHO-hMelR7 Cells expressing Human Melatonin 1 Receptors
A cDNA fragment (SEQ ID NO: 1) encoding full-length of human melatonin 1 receptors (human MT1 receptors) was incorporated into expression vector pAKKO-111H (former name pAKKO1.11H; Biochim Biophys Acta. Vol. 1219(2), pp. 251-259, 1994) to give plasmid pAKKO-hMelR7 for animal cell expression. CHO/dhfr-cells (ATCC, #CRL-9096) were plated at a concentration of 0.3×10^6 cells/dish in a 6 cm culture dish (Becton Dickinson), and cultured under the conditions of 37° C., 5% CO2 for 48 hr. The cells were transfected with pAKKO-hMelR7 plasmid DNA (5 μg) using Cellphect Transfection Kit (Amersham, #27-9268-01). The transfected cells were cultured in Dulbecco's modified Eagle medium (DMEM) (Sigma, #D6046) containing 10% dialyzed FBS (Biowest, #S180D), 1× Non-Essential Amino Acid (Invitrogen, #11140-050) and 50 μg/mL Gentamycin (Invitrogen, #15750-060), and the cell line that stably expressed the plasmid gene was selected. By a receptor binding assay using 2-[^125I] Iodomelatonin, CHO-hMelR7 cell line showing specific binding of 2-[^125I] Iodomelatonin was selected from the obtained clones.
(§2) (3) Preparation of Cellular Membrane Fraction of CHO Cell (CHO-hMelR7 and CHO-hMT2) Stably Expressing Human MT1 and MT2 Receptors
(§3) CHO-hMelR7 and CHO-hMT2 cells were plated using Cellfactory (Nunc, #170009) under the conditions of 1×10^8 cells/2000 mL/flask. The cells were grown to confluent, and recovered by the following method. As the medium for CHO-hMelR7 and CHO-hMT2, MEM a containing 10% FBS and penicillin/streptomycin was used. […]
(§4) The medium was discarded, cells were washed twice with 200 mL of EDTA/PBS(−), 200 mL of EDTA/PBS(−) was further added, and the cells were stood still at room temperature for 20 min until they were released. The cells were recovered in four 50 mL tubes (Becton Dickinson, #352070), and centrifuged at 1,500 rpm for 10 min at 4° C. using a low speed cooling centrifuge (Hitachi, CF7D2). The supernatant was discarded, the pellets in the four tubes were suspended in 10 mL of PBS(−), and combined in one tube (Becton Dickinson, #352070). The mixture was further centrifuged at 1,500 rpm for 10 min at 4° C., and the obtained pellets were suspended in 20 mL of ice-cooled homogenizing buffer [10 mM NaHCO3, 5 mM EDTA, Protease inhibitor Complete (Roche), pH 7.4]. The cell suspension was homogenized 3 times using a polytron homogenizer at 20,000 rpm for 30 sec. The obtained homogenate was centrifuged (2,000 rpm, 10 min, 4° C.) using a low speed cooling centrifuge. The supernatant was recovered in an ultracentrifugation tube and ultracentrifuged (40,000 rpm, 60 min, 4° C.) using an ultracentrifuge (Beckman, L-90K). To the obtained pellets was added a suspending buffer [50 mM Tris-HCl, 1 mM EDTA, Protease inhibitor Complete (Roche), pH 7.4], and the pellets were suspended by pipetting. The protein concentration of this suspension was measured, diluted to 2 mg/mL to give cellular membrane fractions of CHO-hMelR7 and CHO-hMT2 cells. The membrane fractions were dispensed to 1.5 mL tubes (Eppendorf, #0030120.086) by 100 μL, preserved in a freezer (−80° C.) and used for a binding assay. Protein was quantified using BCA protein assay kit (Pierce) with BSA as the standard.
(§5) (4) Preparation of Membrane Fraction Suspension
(§6) Immediately before use, the membrane fractions of CHO-hMelR7 and CHO-hMT2 cells of the above-mentioned (3) were diluted 20-fold with assay buffer (50 mM Tris-HCl, pH 7.7).
(§7) (5) Preparation of 2-[^125I] Iodomelatonin Solution
(§8) 2-[^125I] Iodomelatonin (#NEX236, PerkinElmer) was diluted with the assay buffer to 400 pM for MT1 and 1 nM for MT2.
The assay buffer (80 μL) of the above-mentioned (4) was added to each well of a 96-well plate (type 3363, Corning). Then, a test compound (compound solution diluted with DMSO to 200-fold of the final measurement concentration) was added by 2 μL. […]

[2] = target: T2, human melatonin 2 receptors (human MT2 receptors) (Homo sapiens, UniProt P49286); test: Melatonin receptor binding inhibitory test, 2-[125I] Iodomelatonin, MT2; conditions: membrane fraction of CHO-hMT2 cells, 25° C. for 2.5 hr, read-out: binding inhibitory activity as IC50 value for MT2
T2 construct: expressed in transfected cells; membrane fraction
T2 sequence (P49286 1-362): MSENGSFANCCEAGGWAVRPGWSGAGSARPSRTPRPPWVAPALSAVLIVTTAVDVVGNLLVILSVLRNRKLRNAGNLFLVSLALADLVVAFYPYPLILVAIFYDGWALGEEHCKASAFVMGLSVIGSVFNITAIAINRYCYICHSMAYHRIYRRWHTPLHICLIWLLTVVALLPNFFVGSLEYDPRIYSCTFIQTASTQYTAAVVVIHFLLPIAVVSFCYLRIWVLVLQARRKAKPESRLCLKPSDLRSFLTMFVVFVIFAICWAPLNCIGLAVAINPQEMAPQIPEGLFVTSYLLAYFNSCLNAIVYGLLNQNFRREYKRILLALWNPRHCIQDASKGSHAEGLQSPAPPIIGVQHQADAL
Experimental: as §1
(2) Preparation of CHO-hMT2 Cells Expressing Human Melatonin 2 Receptors
A cDNA fragment (SEQ ID NO: 2) encoding full-length of human melatonin 2 receptors (human MT2 receptors) was incorporated into expression vector pCMV-Script (Stratagene, #212220) to give the plasmid that was pCMV-human MT2 receptors expression vector for animal cell expression. CHO-K1 cells (ATCC, #CCL-61) were plated at the concentration of 1.5×10^5 cells/cm^2 in a 6 well plate (ASAHI TECHNO GLASS), and cultured under the conditions of 37° C., 5% CO2 for 24 hr. For gene transfection, solution obtained by blending pCMV-human MT2 receptors expression vector (1.9 μg), Lipofectamine Transfection Reagent (Invitrogen, #18324-012) (11.3 μL) and Minimum Essential Medium Eagle (MEM) medium (Sigma, M8042) (93.8 μL), and reacting at room temperature for 20 min was added to the cells per one well. The transfected cells were cultured in MEM medium containing 10% FBS (Life Technology) and 300 μg/mL Geneticin (GIBCO, #10131), and the cell line that stably expressed the plasmid gene was selected. By a receptor binding assay using 2-[^125I] Iodomelatonin, CHO-hMT2 cell line showing specific binding of 2-[^125I] Iodomelatonin was selected from the obtained clones.
as §2, §3, §4, §5, §6, §7, §8
The assay buffer (80 μL) of the above-mentioned (4) was added to each well of a 96-well plate (type 3363, Corning). […]

T1 sequence (P48039 whole entry): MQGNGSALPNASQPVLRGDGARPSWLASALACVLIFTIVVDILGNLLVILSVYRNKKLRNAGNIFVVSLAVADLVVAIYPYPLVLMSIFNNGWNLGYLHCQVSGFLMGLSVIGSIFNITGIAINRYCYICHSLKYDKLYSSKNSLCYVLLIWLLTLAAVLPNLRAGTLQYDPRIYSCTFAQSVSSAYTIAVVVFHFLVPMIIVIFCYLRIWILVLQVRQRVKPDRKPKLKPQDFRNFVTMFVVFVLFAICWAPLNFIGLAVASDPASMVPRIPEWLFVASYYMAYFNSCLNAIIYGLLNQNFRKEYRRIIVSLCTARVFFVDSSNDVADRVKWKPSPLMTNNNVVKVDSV

SMILES	IC50 [1]	IC50 [2]	melting point
CC(=O)NCC1CC1c1c(C)ccc2nn(C)cc12 (stereo not shown) [Example 31, N-{[2-(2,5-dimethyl-2H-indazol-4-yl)cyclopropyl]methyl}acetamide]	≤ 100 nM	≤ 100 nM	139 to 140 °C
Cc1cc2c([C@@H]3C[C@H]3CNC(=O)c3ccccc3)cccn2n1 (relative stereo) [Example 50, trans-N-{[2-(2-methylpyrazolo[1,5-a]pyridin-4-yl)cyclopropyl]methyl}benzamide]			112 to 113 °C
CCC(=O)NCC1CC1c1cccc2nc(C)sc12 (stereo not shown) [Example 59, N-{[2-(2-methyl-1,3-benzothiazol-7-yl)cyclopropyl]methyl}propanamide]	≤ 100 nM	≤ 100 nM	59 to 61 °C
CC(=O)NCC1CC1c1c(Cl)ccc2nn(C)cc12 (stereo not shown) [Example 27, N-{[2-(5-chloro-2-methyl-2H-indazol-4-yl)cyclopropyl]methyl}acetamide]	≤ 100 nM	≤ 100 nM	149 to 150 °C
CCc1ccc2nn(C)cc2c1C1CC1CNC(C)=O (stereo not shown) [Example 32, N-{[2-(5-ethyl-2-methyl-2H-indazol-4-yl)cyclopropyl]methyl}acetamide]	≤ 100 nM	≤ 100 nM	
CC(=O)NCC1CC1c1c(Br)ccc2nn(C)cc12 (stereo not shown) [Example 29, N-{[2-(5-bromo-2-methyl-2H-indazol-4-yl)cyclopropyl]methyl}acetamide]	≤ 100 nM	≤ 100 nM	135 to 137 °C
CCC(=O)NC[C@@H]1C[C@H]1c1c(F)ccc2nn(C)cc12 (relative stereo) [Example 26, trans-N-{[2-(5-fluoro-2-methyl-2H-indazol-4-yl)cyclopropyl]methyl}propanamide]	≤ 100 nM	≤ 100 nM	158 to 159 °C
Cc1cc2c([C@H]3C[C@@H]3CNC(=O)OC(C)(C)C)cccn2n1 [Example 41, tert-butyl{[(1S,2S)-2-(2-methylpyrazolo[1,5-a]pyridin-4-yl)cyclopropyl]methyl}carbamate]			117 to 118 °C
Cc1cc2c([C@@H]3C[C@H]3CNC(=O)C3CC3)cccn2n1 (relative stereo) [Example 47, trans-N-{[2-(2-methylpyrazolo[1,5-a]pyridin-4-yl)cyclopropyl]methyl}cyclopropanecarboxamide]	≤ 100 nM	≤ 100 nM	133 to 135 °C
CC(=O)NC[C@H]1C[C@@H]1c1c(F)ccc2nn(C)cc12 [Example 24, N-{[(1S,2S)-2-(5-fluoro-2-methyl-2H-indazol-4-yl)cyclopropyl]methyl}acetamide]	≤ 100 nM	≤ 100 nM	120 °C
CC(=O)NCC1CC1c1cccn2nc(C)nc12 (stereo not shown) [Example 3, N-{[2-(2-methyl[1,2,4]triazolo[1,5-a]pyridin-8-yl)cyclopropyl]methyl}acetamide]	≤ 100 nM		116 to 118 °C
Cn1cc2c([C@@H]3C[C@H]3CNC(=O)OC(C)(C)C)cccc2n1 [Example 9, tert-butyl{[(1R,2R)-2-(2-methyl-2H-indazol-4-yl)cyclopropyl]methyl}carbamate]			140 to 142 °C
Cc1cc2c([C@@H]3C[C@H]3CNC(=O)OC(C)(C)C)cccn2n1 [Example 42, tert-butyl{[(1R,2R)-2-(2-methylpyrazolo[1,5-a]pyridin-4-yl)cyclopropyl]methyl}carbamate]			118 to 119 °C
Cn1cc2c([C@@H]3C[C@H]3CNC(=O)c3ccc(Br)cc3)cccc2n1 [Example 15, 4-bromo-N-{[(1R,2R)-2-(2-methyl-2H-indazol-4-yl)cyclopropyl]methyl}benzamide]			140 to 142 °C
CCC(=O)NCC1CC1c1cccn2nc(C)nc12 (stereo not shown) [Example 4, N-{[2-(2-methyl[1,2,4]triazolo[1,5-a]pyridin-8-yl)cyclopropyl]methyl}propanamide]	≤ 100 nM	≤ 100 nM	
Cc1cc2c([C@@H]3C[C@H]3CNC(=O)OC(C)(C)C)cccn2n1 (relative stereo) [Example 40, trans-tert-butyl{[2-(2-methylpyrazolo[1,5-a]pyridin-4-yl)cyclopropyl]methyl}carbamate]			105 to 107 °C
CC(=O)NCC1CC1c1cccc2nc(C(F)(F)F)cn12 (stereo not shown) [Example 54, N-({2-[2-(trifluoromethyl)imidazo[1,2-a]pyridin-5-yl]cyclopropyl}methyl)acetamide]			135 to 137 °C
Cn1cc2c([C@@H]3C[C@H]3CNC(=O)OC(C)(C)C)cccc2n1 (relative stereo) [Example 7, trans-tert-butyl{[2-(2-methyl-2H-indazol-4-yl)cyclopropyl]methyl}carbamate]			120 to 121 °C
CCC(=O)NCC1CC1c1cccc2nc(C(F)(F)F)cn12 (stereo not shown) [Example 55, N-({2-[2-(trifluoromethyl)imidazo[1,2-a]pyridin-5-yl]cyclopropyl}methyl)propanamide]			148 to 151 °C
Cn1cc2c([C@H]3C[C@@H]3CNC(=O)OC(C)(C)C)cccc2n1 [Example 8, tert-butyl{[(1S,2S)-2-(2-methyl-2H-indazol-4-yl)cyclopropyl]methyl}carbamate]			141 to 142 °C

Reference: patent US8110585B2, “Bicyclic compound and pharmaceutical use thereof” (Takeda Pharmaceutical Company Limited, priority 2007, dated 2012)
